# Measurements published in ChEMBL document CHEMBL1156714, “Microwave induced synthesis of novel 8,9-dihydro-7H-pyrimido[4,5-b][1,4]diazepines as potential antitumor agents” (2008).
# Calls of active or inactive are those of the source. The rule behind the calls is not given here.
# Legend:
# RXF 393 [1] = experiment: Growth inhibition of human RXF393 cells after 48 hrs by SRB assay; assay type: functional; settings: RXF 393, 48 h
# SR = experiment: Growth inhibition of human SR cells after 48 hrs by SRB assay; assay type: functional
# NCI-H522 = experiment: Growth inhibition of human NCI-H522 cells after 48 hrs by SRB assay; assay type: functional; settings: NCI-H522, 48 h; for CC50: read-out: LC50 (the source's name)
# IGROV-1 = experiment: Growth inhibition of human IGROV1 cells after 48 hrs by SRB assay; assay type: functional; settings: IGROV-1, 48 h; for CC50: read-out: LC50 (the source's name)
# HCT-15 = experiment: Growth inhibition of human HCT15 cells after 48 hrs by SRB assay; assay type: functional; settings: HCT-15, 48 h; for CC50: read-out: LC50 (the source's name)
# BT-549 = experiment: Growth inhibition of human BT549 cells after 48 hrs by SRB assay; assay type: functional; settings: BT-549, 48 h
# NCI-60 = experiment: Growth inhibition of human NCI-60 cells at 1.0 uM; assay type: functional, cell-based
# UO-31 = experiment: Growth inhibition of human UO31 cells after 48 hrs by SRB assay; assay type: functional; settings: UO-31, 48 h; for CC50: read-out: LC50 (the source's name)
# RPMI-8226 = experiment: Growth inhibition of human RPMI8226 cells after 48 hrs by SRB assay; assay type: functional; settings: RPMI-8226, 48 h; for CC50: read-out: LC50 (the source's name)
# [2] = Growth inhibition of human HL60(TB) cells after 48 hrs by SRB assay; assay type: functional, HL-60(TB)
# HCT-116 = experiment: Growth inhibition of human HCT116 cells after 48 hrs by SRB assay; assay type: functional; settings: HCT-116, 48 h; for CC50: read-out: LC50 (the source's name)
# Hs-578T = experiment: Growth inhibition of human HS578T cells after 48 hrs by SRB assay; assay type: functional; settings: for CC50: read-out: LC50 (the source's name)
# NCI/ADR-RES = experiment: Growth inhibition of human NCI/ADR-RES cells after 48 hrs by SRB assay; assay type: functional
# U-251 = experiment: Growth inhibition of human U251 cells after 48 hrs by SRB assay; assay type: functional; settings: U-251, 48 h
# ACHN = experiment: Growth inhibition of human ACHN cells after 48 hrs by SRB assay; assay type: functional
# HOP-62 = experiment: Growth inhibition of human HOP62 cells after 48 hrs by SRB assay; assay type: functional; settings: HOP-62, 48 h
# MCF7 = experiment: Growth inhibition of human MCF7 cells after 48 hrs by SRB assay; assay type: functional; settings: MCF7, 48 h
# A549 = experiment: Growth inhibition of human A549 cells after 48 hrs by SRB assay; assay type: functional; settings: A549, 48 h
# SF-295 = experiment: Growth inhibition of human SF295 cells after 48 hrs by SRB assay; assay type: functional; settings: SF-295, 48 h
# [3] = Growth inhibition of human OVACR3 cells after 48 hrs by SRB assay; assay type: functional
# A498 = experiment: Growth inhibition of human A498 cells after 48 hrs by SRB assay; assay type: functional; settings: A498, 48 h
# SF-268 = experiment: Growth inhibition of human SF268 cells after 48 hrs by SRB assay; assay type: functional; settings: SF-268, 48 h
# K562 = experiment: Growth inhibition of human K562 cells after 48 hrs by SRB assay; assay type: functional; settings: K562, 48 h
# HCC 2998 = experiment: Growth inhibition of human HCC2998 cells after 48 hrs by SRB assay; assay type: functional; settings: HCC 2998, 48 h
# [4] = Growth inhibition of human […] cells after 48 hrs by SRB assay; assay type: functional
# KM12 = experiment: Growth inhibition of human KM12 cells after 48 hrs by SRB assay; assay type: functional; settings: KM12, 48 h
# PC-3 = experiment: Growth inhibition of human PC3 cells after 48 hrs by SRB assay; assay type: functional; settings: PC-3, 48 h
# MDA-MB-231 = experiment: Growth inhibition of human MDA-MB-231 cells after 48 hrs by SRB assay; assay type: functional; settings: MDA-MB-231, 48 h
# LOX IMVI = experiment: Growth inhibition of human LOX IMVI cells after 48 hrs by SRB assay; assay type: functional
# NCI-H322M = experiment: Growth inhibition of human NCI-H322M cells after 48 hrs by SRB assay; assay type: functional
# MDA-MB-468 = experiment: Growth inhibition of human MDA-MB-468 cells after 48 hrs by SRB assay; assay type: functional; settings: MDA-MB-468, 48 h
# SW-620 = experiment: Growth inhibition of human SW620 cells after 48 hrs by SRB assay; assay type: functional; settings: SW-620, 48 h
# [5] = Growth inhibition of human OVACR4 cells after 48 hrs by SRB assay; assay type: functional
# COLO 205 = experiment: Growth inhibition of human COLO205 cells after 48 hrs by SRB assay; assay type: functional; settings: COLO 205, 48 h
# SNB-75 = experiment: Growth inhibition of human SNB75 cells after 48 hrs by SRB assay; assay type: functional; settings: SNB-75, 48 h
# RXF 393 [6] = experiment: Growth inhibition of human […] cells after 48 hrs by SRB assay; assay type: functional; settings: RXF 393, 48 h
# HT-29 = experiment: Growth inhibition of human HT29 cells after 48 hrs by SRB assay; assay type: functional; settings: HT-29, 48 h
# DU-145 = experiment: Growth inhibition of human DU145 cells after 48 hrs by SRB assay; assay type: functional; settings: DU-145, 48 h
# [7] = Growth inhibition of human OVACR5 cells after 48 hrs by SRB assay; assay type: functional
# TK-10 = experiment: Growth inhibition of human TK10 cells after 48 hrs by SRB assay; assay type: functional; settings: TK-10, 48 h
# MOLT-4 = experiment: Growth inhibition of human MOLT4 cells after 48 hrs by SRB assay; assay type: functional; settings: MOLT-4, 48 h
# [8] = read-out: LC50 (the source's name)
smiles,measurement,setting,value
Nc1ncnc2c1N=C(c1ccc3c(c1)OCO3)CC(c1ccc([N+](=O)[O-])cc1)N2 (racemic),GI50,RXF 393 [1],7.19 µM
same,CC50,RXF 393 [1]; [8],> 100 µM
same,GI50,SR,2.37 µM
same,LC50 (concentration killing 50% of cells),SR,> 100 µM
same,GI50,NCI-H522,6.78 µM
same,CC50,NCI-H522,> 100 µM
same,GI50,IGROV-1,0.068 µM
same,CC50,IGROV-1,25.5 µM
same,GI50,HCT-15,9.55 µM
same,CC50,HCT-15,> 100 µM
same,GI50,BT-549,1.68 µM
same,CC50,BT-549; [8],> 100 µM
same,Activity,NCI-60,Active
same,GI50,UO-31,18.1 µM
same,CC50,UO-31,> 100 µM
same,GI50,RPMI-8226,0.19 µM
same,CC50,RPMI-8226,> 100 µM
same,LC100,[2],>100 µM
same,GI50,"[2]; Homo sapiens, HL-60, 48 h",13.1 µM
same,GI50,HCT-116,18.2 µM
same,CC50,HCT-116,> 100 µM
same,GI50,Hs-578T,9.18 µM
same,CC50,Hs-578T,> 100 µM
Nc1ncnc2c1N=C(c1ccc3c(c1)OCO3)CC(c1ccc(Cl)cc1)N2 (racemic),GI50,NCI/ADR-RES,5.35 µM
same,CC50,NCI/ADR-RES; [8],> 100 µM
same,GI50,U-251,6.19 µM
same,CC50,U-251; [8],78.9 µM
same,GI50,ACHN,8.25 µM
same,LC50 (lethal concentration 50%),ACHN,> 100 µM
same,GI50,NCI-H522,2.37 µM
same,CC50,NCI-H522,> 100 µM
same,GI50,HOP-62,16.6 µM
same,CC50,HOP-62; [8],> 100 µM
same,GI50,IGROV-1,0.35 µM
same,CC50,IGROV-1,42.8 µM
same,GI50,MCF7,3.61 µM
same,LC50,MCF7,> 100 µM
same,GI50,A549,11.6 µM
same,LC50,A549,78.3 µM
same,GI50,SF-295,14.7 µM
same,LC50,SF-295,> 100 µM
same,GI50,[3],3.71 µM
same,LC50,[3],83 µM
same,GI50,A498,5.94 µM
same,LC50,A498,> 100 µM
same,GI50,SF-268,8.52 µM
same,LC50 (50% lethal concentration),SF-268,> 100 µM
same,GI50,K562,4.27 µM
same,LC50,K562,> 100 µM
same,GI50,HCC 2998,5.88 µM
same,LC50 (concentration killing 50% of cells),HCC 2998,> 100 µM
same,GI50,[4],4.66 µM
same,CC50,[4]; [8],> 100 µM
same,GI50,HCT-15,3.14 µM
same,CC50,HCT-15,55.2 µM
same,Activity,NCI-60,Active
same,GI50,KM12,2.03 µM
same,CC50,KM12; [8],> 100 µM
same,GI50,PC-3,9.06 µM
same,CC50,PC-3; [8],50.8 µM
same,GI50,MDA-MB-231,2.7 µM
same,CC50,MDA-MB-231; [8],55.6 µM
same,GI50,UO-31,7.48 µM
same,CC50,UO-31,> 100 µM
same,GI50,LOX IMVI,10.1 µM
same,CC50,LOX IMVI; [8],> 100 µM
same,GI50,RPMI-8226,1.5 µM
same,CC50,RPMI-8226,> 100 µM
same,GI50,NCI-H322M,16.9 µM
same,CC50,NCI-H322M; [8],> 100 µM
same,GI50,"[2]; Homo sapiens, HL-60, 48 h",5.37 µM
same,CC50,"[2]; Homo sapiens, HL-60, 48 h, read-out: LC50 (the source's name)",> 100 µM
same,GI50,MDA-MB-468,10.1 µM
same,CC50,MDA-MB-468; [8],> 100 µM
same,GI50,SW-620,4.91 µM
same,CC50,SW-620; [8],> 100 µM
same,GI50,[5],18.3 µM
same,LC50,[5],> 100 µM
same,GI50,HCT-116,10.7 µM
same,CC50,HCT-116,47.5 µM
same,GI50,COLO 205,15 µM
same,CC50,COLO 205; [8],> 100 µM
same,GI50,SNB-75,5.22 µM
same,CC50,SNB-75; [8],> 100 µM
same,GI50,Hs-578T,1.07 µM
same,CC50,Hs-578T,> 100 µM
same,GI50,RXF 393 [6],2.51 µM
same,CC50,RXF 393 [6]; [8],59.3 µM
same,GI50,HT-29,3.81 µM
same,CC50,HT-29; [8],> 100 µM
same,GI50,DU-145,16.8 µM
same,CC50,DU-145; [8],65.9 µM
same,GI50,[7],18.3 µM
same,CC50,[7]; [8],> 100 µM
same,GI50,TK-10,8.23 µM
same,CC50,TK-10; [8],> 100 µM
same,GI50,MOLT-4,5.85 µM
same,CC50,MOLT-4; [8],> 100 µM
COc1ccc(C2=Nc3c(N)ncnc3NC(c3ccc4c(c3)OCO4)C2)cc1 (racemic),Activity,NCI-60,inactive
COc1ccc(C2CC(c3ccc4c(c3)OCO4)=Nc3c(N)ncnc3N2)cc1 (racemic),Activity,NCI-60,inactive
Nc1ncnc2c1N=C(c1ccc(Cl)cc1)CC(c1ccc3c(c1)OCO3)N2 (racemic),Activity,NCI-60,inactive
Nc1ncnc2c1N=C(c1ccc([N+](=O)[O-])cc1)CC(c1ccc3c(c1)OCO3)N2 (racemic),Activity,NCI-60,inactive
